Data: patent US20070270421A1, “Novel pyridine Derivative and Pyrimidine Derivative (1)” (priority 2004, published 2007)

Target: T1, HGFR (His6-HGFR cytoplasmic domain) (Homo sapiens, UniProt P08581)
T1 construct: made in house; host or cells: Spodoptera frugiperda Sf9 insect cells (baculovirus, pFastBac-HT)
Assay: Inhibitory activity against HGFR tyrosine kinase activity (HTRF)
Assay type: biochemical
Conditions: biotin-poly(GT), ATP, 30° C. 10 min, read-out: IC50 (concentration necessary to inhibit HGFR kinase activity by 50%)
Outline: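 Baculovirus/Sf9-expressed N-terminal His6-tagged HGFR cytoplasmic domain (from Lys974), Ni-NTA purified, phosphorylated biotin-poly(GT) in Hepes pH 7.4 with MgCl2/MnCl2. ATP added as 4 μM solution; 10 min at 30° C., stopped with EDTA. Phosphotyrosine product detected by HTRF.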

T1 sequence (P08581 956-1390 limits assumed): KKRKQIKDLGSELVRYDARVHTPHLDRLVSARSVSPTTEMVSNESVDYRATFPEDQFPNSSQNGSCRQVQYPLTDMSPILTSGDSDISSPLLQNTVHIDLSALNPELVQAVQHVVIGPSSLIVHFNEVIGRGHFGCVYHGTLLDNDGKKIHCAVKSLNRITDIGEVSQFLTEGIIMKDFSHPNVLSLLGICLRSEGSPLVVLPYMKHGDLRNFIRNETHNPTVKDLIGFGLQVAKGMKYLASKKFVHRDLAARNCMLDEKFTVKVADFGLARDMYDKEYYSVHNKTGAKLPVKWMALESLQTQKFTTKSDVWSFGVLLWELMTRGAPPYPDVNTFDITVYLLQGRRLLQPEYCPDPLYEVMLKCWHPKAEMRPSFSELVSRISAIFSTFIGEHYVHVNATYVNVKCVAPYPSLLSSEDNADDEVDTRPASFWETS

| SMILES | IC50 |
| --- | --- |
| CN1CCC(N2CCN(C(=O)Nc3cc(Oc4ccc(NC(=S)NC(=O)Cc5ccccc5)cc4F)ccn3)CC2)CC1 [Example 326, 4-{2-Fluoro-4-[3-(2-phenylacetyl)thioureido]phenoxy}-2-{[4-(1-methylpiperidin-4-yl)piperazin-1-yl]carbonylamino}pyridine] | 130 nM |
| CN(C)CCN1CCN(C(=O)Nc2cc(Oc3ccc(NC(=S)NC(=O)Cc4ccc(F)cc4)cc3)ccn2)CC1 [Example 327, 2-{[4-(2-Dimethylaminoethyl)piperazin-1-yl]carbonylamino}-4-(4-{3-[2-(4-fluorophenyl)acetyl]thioureido}phenoxy)pyridine] | 75 nM |
| CN1CC(N2CCC(N(C)C(=O)Nc3cc(Oc4ccc(NC(=S)NC(=O)Cc5ccc(F)cc5)cc4)ccn3)CC2)C1 [Example 331, 3-(4-{4-[3-(4-Fluorophenyl)acetylthioureido]phenoxy}pyridin-2-yl)-1-methyl-1-[1-(1-methylazetidin-3-yl)piperidin-4-yl]urea] | 84 nM |
| CN(C)CCN1CCCN(C(=O)Nc2cc(Oc3ccc(NC(=S)NC(=O)Cc4ccccc4)cc3F)ccn2)CC1 [Example 334, 4-(2-Dimethylaminoethyl)-[1,4]diazepane-1-carboxylic acid {4-[2-fluoro-4-(3-phenylacetylthioureido)phenoxy]pyridin-2-yl}amide] | 120 nM |
| CN(C)C[C@@H]1CCCN(C(=O)Nc2cc(Oc3ccc(NC(=S)NC(=O)Cc4ccccc4)cc3F)ccn2)C1 [Example 335, (3S)-3-Dimethylaminomethylpiperidine-1-carboxylic acid {4-[2-fluoro-4-(3-phenylacetylthioureido)phenoxy]pyridin-2-yl}amide] | 110 nM |
| CN1CC(N2CCN(C(=O)Nc3cc(Oc4ccc(NC(=S)NC(=O)Cc5ccc(F)cc5)cc4)ccn3)CC2)C1 [Example 337, 4-(1-Methylazetidin-3-yl)piperazine-1-carboxylic acid [4-(4-{3-[2-(4-fluorophenyl)acetyl]thioureido}phenoxy)pyridin-2-yl]amide] | 150 nM |
| O=C(Cc1ccc(F)cc1)NC(=S)Nc1ccc(Oc2cc(NC(=O)N3CCN(CCN4CCCC4)CC3)ncn2)c(F)c1 [Example 339, 4-(2-Pyrrolidin-1-ylethyl)piperazine-1-carboxylic acid [6-(2-fluoro-4-{3-[2-(4-fluorophenyl)acetyl]thioureido}phenoxy)pyrimidin-4-yl]amide] | 130 nM |
| CN1CCN(C2CCN(C(=O)Nc3cc(Oc4ccc(NC(=O)NC(=O)Cc5ccccc5)cc4F)ccn3)CC2)CC1 [Example 340, 4-{2-Fluoro-4-[3-(2-phenylacetyl)ureido]phenoxy}-2-{[4-(1-methylpiperazin-4-yl)piperidin-1-yl]carbonylamino}pyridine] | 77 nM |
| CN1CCC(N2CCN(C(=O)Nc3cc(Oc4ccc(NC(=O)NC(=O)Cc5ccccc5)cc4F)ccn3)CC2)CC1 [Example 341, 4-{2-Fluoro-4-[3-(2-phenylacetyl)ureido]phenoxy}-2-{[4-(1-methylpiperidin-4-yl)piperazin-1-yl]carbonylamino}pyridine] | 100 nM |
| CN1CCN(C2CCN(C(=O)Nc3cc(Oc4ccc(NC(=O)NC(=O)Cc5ccc(F)cc5)cc4F)ccn3)CC2)CC1 [Example 343, 4-(2-Fluoro-4-{3-[2-(4-fluorophenyl)acetyl]ureido}phenoxy)-2-{[4-(1-methylpiperazin-4-yl)piperidin-1-yl]carbonylamino}pyridine] | 120 nM |
| CN1CCN(C2CCN(C(=O)Nc3cc(Oc4ccc(NC(=O)NC(=O)Cc5ccc(F)cc5)cc4)ccn3)CC2)CC1 [Example 344, 4-(4-{3-[2-(4-Fluorophenyl)acetyl]ureido}phenoxy)-2-{[4-(1-methylpiperazin-4-yl)piperidin-1-yl]carbonylamino}pyridine] | 110 nM |
| CN1CCC(N2CCN(C(=O)Nc3cc(Oc4ccc(NC(=O)NC(=O)Cc5ccc(F)cc5)cc4F)ccn3)CC2)CC1 [Example 345, 4-(2-Fluoro-4-{3-[2-(4-fluorophenyl)acetyl]ureido}phenoxy)-2-{[4-(1-methylpiperidin-4-yl)piperazin-1-yl]carbonylamino}pyridine] | 120 nM |
| CN1CCC(N2CCN(C(=O)Nc3cc(Oc4ccc(NC(=O)NC(=O)Cc5ccc(F)cc5)cc4)ccn3)CC2)CC1 [Example 346, 4-(4-{3-[2-(4-Fluorophenyl)acetyl]ureido}phenoxy)-2-{[4-(1-methylpiperidin-4-yl)piperazin-1-yl]carbonylamino}pyridine] | 100 nM |
| O=C(Cc1ccc(F)cc1)NC(=S)Nc1ccc(Oc2cc(NC(=O)N3CCC(CN4CCCC4)CC3)ncn2)c(F)c1 [Example 349, 4-(Pyrrolidin-1-ylmethyl)piperidine-1-carboxylic acid [6-(2-fluoro-4-{3-[2-(4-fluorophenyl)acetyl]thioureido}phenoxy)pyrimidin-4-yl]amide] | 87 nM |
| CN(C)CCN1CCC(N(C)C(=O)Nc2cc(Oc3ccc(NC(=O)NC(=O)Cc4ccccc4)cc3F)ccn2)CC1 [Example 353, 1-[1-(2-Dimethylaminoethyl)piperidin-4-yl]-3-{4-[2-fluoro-4-(3-phenylacetylureido)phenoxy]pyridin-2-yl}-1-methylurea] | 180 nM |
| CN(C)CCN1CCC(N(C)C(=O)Nc2cc(Oc3ccc(NC(=O)NC(=O)Cc4ccc(F)cc4)cc3)ccn2)CC1 [Example 354, 1-[1-(2-Dimethylaminoethyl)piperidin-4-yl]-3-[4-(4-{3-[2-(4-fluorophenyl)acetyl]ureido}phenoxy)pyridin-2-yl]-1-methylurea] | 160 nM |
| CN(C)CCN1CCN(C(=O)Nc2cc(Oc3ccc(NC(=O)NC(=O)Cc4ccc(F)cc4)cc3F)ccn2)CC1 [Example 362, 2-{[4-(2-Dimethylaminoethyl)piperazin-1-yl]carbonylamino}-4-(2-fluoro-4-{3-[2-(4-fluorophenyl)acetyl]ureido}phenoxy)pyridine] | 130 nM |
| CN(C)CCN1CCN(C(=O)Nc2cc(Oc3ccc(NC(=O)NC(=O)Cc4ccccc4)cc3F)ccn2)CC1 [Example 364, 2-{[4-(2-Dimethylaminoethyl)piperazin-1-yl]carbonylamino}-4-{2-fluoro-4-[3-(2-phenylacetyl)ureido]phenoxy}pyridine] | 97 nM |
| CN(C)C1CN(C2CCN(C(=O)Nc3cc(Oc4ccc(NC(=S)NC(=O)Cc5ccccc5)cc4F)ccn3)CC2)C1 [Example 373, 4-(3-Dimethylaminoazetidin-1-yl)piperidine-1-carboxylic acid {4-[2-fluoro-4-(3-phenylacetylthioureido)phenoxy]pyridin-2-yl}amide] | 77 nM |

The next molecules have a lower IC50 than those just listed; values first:

| IC50 | SMILES |
| --- | --- |
| 68 nM | CN1CC(N2CCN(C(=O)Nc3cc(Oc4ccc(NC(=O)NC(=O)Cc5ccccc5)cc4F)ccn3)CC2)C1 [Example 377, 4-(1-Methylazetidin-3-yl)piperazine-1-carboxylic acid {4-[2-fluoro-4-(3-phenylacetylureido)phenoxy]pyridin-2-yl}amide] |
| 65 nM | CN1CC(N2CCN(C(=O)Nc3cc(Oc4ccc(NC(=O)NC(=O)Cc5ccc(F)cc5)cc4)ccn3)CC2)C1 [Example 376, 4-(1-Methylazetidin-3-yl)piperazine-1-carboxylic acid [4-(4-{3-[2-(4-fluorophenyl)acetyl]ureido}phenoxy)pyridin-2-yl]amide] |
| 64 nM | CN1CCC(N2CCN(C(=O)Nc3cc(Oc4ccc(NC(=S)NC(=O)Cc5ccc(F)cc5)cc4)ccn3)CC2)CC1 [Example 329, 4-(4-{3-[2-(4-Fluorophenyl)acetyl]thioureido}phenoxy)-2-{[4-(1-methylpiperidin-4-yl)piperazin-1-yl]carbonylamino}pyridine] |
| 62 nM | CN(C)CC1CCN(C(=O)Nc2cc(Oc3ccc(NC(=O)NC(=O)Cc4ccc(F)cc4)cc3F)ccn2)CC1 [Example 347, 2-{[4-(Dimethylaminomethyl)piperidin-1-yl]carbonylamino}-4-(2-fluoro-4-{3-[2-(4-fluorophenyl)acetyl]ureido}phenoxy)pyridine] |
| 59 nM | CN(C)CC1CCN(C(=O)Nc2cc(Oc3ccc(NC(=O)NC(=O)Cc4ccccc4)cc3F)ccn2)CC1 [Example 342, 2-{[4-(Dimethylaminomethyl)piperidin-1-yl]carbonylamino}-4-{2-fluoro-4-[3-(2-phenylacetyl)ureido]phenoxy}pyridine] |
| 50 nM | CN1CC(N2CCC(N(C)C(=O)Nc3cc(Oc4ccc(NC(=S)NC(=O)Cc5ccccc5)cc4F)ccn3)CC2)C1 [Example 330, 3-{4-[2-Fluoro-4-(3-phenylacetylthioureido)phenoxy]pyridin-2-yl}-1-methyl-1-[1-(1-methylazetidin-3-yl)piperidin-4-yl]urea] |
| 48 nM | CN(C)CC1CCN(C(=O)Nc2cc(Oc3ccc(NC(=S)NC(=O)Cc4ccccc4)cc3F)ccn2)CC1 [Example 311, 2-{[4-(Dimethylaminomethyl)piperidin-1-yl]carbonylamino}-4-(2-fluoro-4-{3-[2-(phenyl)acetyl]thioureido}phenoxy)pyridine] |
| 48 nM | CN1CCC[C@@H](N(C)C(=O)Nc2cc(Oc3ccc(NC(=S)NC(=O)Cc4ccc(F)cc4)cc3F)ncn2)C1 [Example 312, 3-[6-(2-Fluoro-4-{3-[2-(4-fluorophenyl)acetyl]thioureido}phenoxy)pyrimidin-4-yl]-1-methyl-1-[(3R)-1-methylpiperidin-3-yl]urea] |
| 43 nM | CN1CCC[C@H](N(C)C(=O)Nc2cc(Oc3ccc(NC(=S)NC(=O)Cc4ccc(F)cc4)cc3F)ncn2)C1 [Example 322, 3-[6-(2-Fluoro-4-{3-[2-(4-fluorophenyl)acetyl]thioureido}phenoxy)pyrimidin-4-yl]-1-methyl-1-[(3S)-1-methylpiperidin-3-yl]urea] |
| 31 nM | CC(=O)N1CCC(N(C)C(=O)Nc2cc(Oc3ccc(NC(=S)NC(=O)Cc4ccc(F)cc4)cc3F)ncn2)CC1 [Example 314, 1-(1-Acetylpiperidin-4-yl)-3-[6-(2-fluoro-4-{3-[2-(4-fluorophenyl)acetyl]thioureido}phenoxy)pyrimidin-4-yl]-1-methylurea] |
